# What was measured:
# [1] = tested on: HEK293; assay: Inhibition of mouse GAT4-mediated [3H]GABA uptake expressed in human HEK cells assessed as specific binding remaining at 1 mM; type: cell-based
# [2] = target: Sodium- and chloride-dependent GABA transporter 1 (Mus musculus, UniProt P31648); type: cell-based, HEK293
# [3] = cells; type: cell-based; settings: HEK293, 3 h
# [4] = target: Sodium- and chloride-dependent GABA transporter 1 (Mus musculus) (UniProt P31648); assay: Inhibition of mouse GAT1-mediated [3H]GABA uptake expressed in human HEK cells assessed as specific binding remaining at 1 mM; type: cell-based; settings: HEK293
# [5] = target: T1, GABA transporter 3 (Mus musculus) (UniProt P31649); assay: Inhibition of mouse GAT2-mediated [3H]GABA uptake expressed in human HEK cells assessed as specific binding remaining at 100 µM; settings: HEK293
# T1 sequence (whole entry): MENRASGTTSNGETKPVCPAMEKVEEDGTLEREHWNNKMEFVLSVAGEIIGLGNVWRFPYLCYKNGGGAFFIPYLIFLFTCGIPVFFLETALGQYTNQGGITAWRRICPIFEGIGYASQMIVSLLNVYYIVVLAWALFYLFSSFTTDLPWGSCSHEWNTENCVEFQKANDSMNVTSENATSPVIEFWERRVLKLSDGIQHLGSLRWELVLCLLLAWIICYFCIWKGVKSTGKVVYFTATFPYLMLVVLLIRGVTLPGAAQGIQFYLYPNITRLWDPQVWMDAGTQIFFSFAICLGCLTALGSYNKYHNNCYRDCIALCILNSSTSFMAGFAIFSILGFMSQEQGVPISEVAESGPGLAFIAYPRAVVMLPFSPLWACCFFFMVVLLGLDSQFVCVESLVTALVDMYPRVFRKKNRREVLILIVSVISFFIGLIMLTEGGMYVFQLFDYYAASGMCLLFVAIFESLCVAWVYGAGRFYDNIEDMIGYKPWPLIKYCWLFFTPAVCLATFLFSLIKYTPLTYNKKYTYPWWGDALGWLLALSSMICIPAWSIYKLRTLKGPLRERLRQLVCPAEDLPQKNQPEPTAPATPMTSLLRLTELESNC
# [6] = tested on: HEK293; assay: Inhibition of mouse GAT4-mediated [3H]GABA uptake expressed in human HEK cells assessed as specific binding remaining at 100 µM
# [7] = target: T2, GABA transporter 4 (Mus musculus) (UniProt P31650); assay: Inhibition of mouse GAT3-mediated [3H]GABA uptake expressed in human HEK cells assessed as specific binding remaining at 100 µM; settings: HEK293
# T2 sequence (whole entry): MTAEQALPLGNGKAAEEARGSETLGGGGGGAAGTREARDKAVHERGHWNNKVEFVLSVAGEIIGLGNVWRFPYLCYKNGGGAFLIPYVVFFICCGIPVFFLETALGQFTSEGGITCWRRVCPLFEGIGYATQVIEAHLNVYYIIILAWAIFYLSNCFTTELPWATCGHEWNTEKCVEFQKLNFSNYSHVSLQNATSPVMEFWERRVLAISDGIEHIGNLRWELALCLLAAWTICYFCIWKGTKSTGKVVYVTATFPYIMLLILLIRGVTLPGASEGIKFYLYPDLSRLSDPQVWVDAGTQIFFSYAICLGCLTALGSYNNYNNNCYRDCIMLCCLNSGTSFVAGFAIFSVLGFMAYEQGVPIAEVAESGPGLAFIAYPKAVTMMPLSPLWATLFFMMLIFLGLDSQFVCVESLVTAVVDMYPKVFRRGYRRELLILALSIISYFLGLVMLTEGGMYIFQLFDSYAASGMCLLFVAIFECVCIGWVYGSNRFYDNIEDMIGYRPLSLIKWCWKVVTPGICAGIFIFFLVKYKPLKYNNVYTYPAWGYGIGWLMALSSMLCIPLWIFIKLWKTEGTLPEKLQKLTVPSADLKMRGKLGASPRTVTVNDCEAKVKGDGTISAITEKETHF
# [8] = target: Sodium- and chloride-dependent GABA transporter 1 (Mus musculus) (UniProt P31648); assay: Inhibition of mouse GAT1-mediated [3H]GABA uptake expressed in human HEK cells assessed as specific binding remaining at 100 µM; settings: HEK293
SMILES,IC50 ([2]; read-out: pIC50 (converted)) [µM],IC50 ([3]; read-out: pIC50 (converted)) [µM],Activity [4] [%],Activity [1] [%],also measured
NCC(=O)O [GLYCINE],,3090,,,
COc1ccc(C2(O)CCN(CCCn3c4ccccc4c4ccccc43)CC2)cc1,,,,,IC50 ([2]; read-out: IC50): 19 µM; IC50 ([3]; read-out: IC50): 15 µM
O=C(O)CCCn1ccnc1,117,38,,,
O=C(O)CCCCCCCn1ccnc1,,,68.3,58.6,
O=C(O)c1ccc2[nH]cnc2c1,,,,,Activity [5]: 74.2%; Activity [6]: 67.8%; Activity [7]: 103%; Activity [8]: 108%
O=C(O)/C=C/c1c[nH]cn1,,,54.8,95.8,
COc1ccc(C(OCCN2CCC[C@H](C(=O)O)C2)(c2ccc(OC)cc2)c2ccc(OC)cc2)cc1,,,,,IC50 ([3]; read-out: IC50): 3 µM
NCCC(=O)O [BETA-ALANINE],2570,34.7,,,
O=C(O)Cc1ncc[nH]1,,,75.3,63.4,
O=C(O)CCCCn1ccnc1,115,224,,,
NCCCCCC(=O)O,,,,65.1,
O=C(O)CCCc1ncc[nH]1,,513,62.3,,
O=C(O)/C=C/CCc1ncc[nH]1,324,309,,,
NCCCCCCC(=O)O,,,,84.3,
O=C(O)Cc1c[nH]cn1 [IMIDAZOLE ACETIC ACID],617,46.8,,,
O=C(O)CCCCc1ncc[nH]1,724,437,,,
O=C(O)c1cccc2[nH]cnc12,,,,,Activity [5]: 94.2%; Activity [6]: 68.2%; Activity [7]: 78.2%; Activity [8]: 95.9%
O=C(O)c1ncc[nH]1,,,,98.6,
O=C(O)c1c[nH]cn1,,,90.8,85.5,
O=C(O)C1CCCc2[nH]cnc21 (stereo unspecified),,,59,81.6,
O=C(O)CCc1ncc[nH]1,,309,62.8,,
O=C(O)CCCCCCn1ccnc1,676,,,71.1,
Cc1ccsc1C(=CCCN(C)C1CCCc2onc(O)c21)c1sccc1C (stereo unspecified),,,,,IC50 ([2]; read-out: IC50): 4 µM; IC50 ([3]; read-out: IC50): > 300 µM

# More lines, main results first:
IC50 ([2]; read-out: pIC50 (converted)) [µM],IC50 ([3]; read-out: pIC50 (converted)) [µM],Activity [4] [%],SMILES,Activity [1] [%],also measured
417,,,O=C(O)CCCCc1c[nH]cn1,64.7,
417,52.5,,O=C(O)CCCc1c[nH]cn1,,
1020,234,,O=C(O)CCCCCn1ccnc1,,
,501,,NCCCCC(=O)O [5-AMINOVALERIC ACID],,
,81.3,61.7,O=C(O)CCc1c[nH]cn1,,
123,209,,O=C(O)/C=C/CCc1c[nH]cn1,,
,,102,O=C(O)/C=C\c1ncc[nH]1,93.6,
,,85,O=C(O)C1CCc2[nH]cnc2C1 (stereo unspecified),82.4,
,617,73.3,O=C(O)Cn1ccnc1,,
,,73.3,O=C(O)/C=C/c1ncc[nH]1,47.2,
,191,72,O=C(O)CCn1ccnc1,,

# — ChEMBL document CHEMBL1773002, “Development of imidazole alkanoic acids as mGAT3 selective GABA uptake inhibitors” (Eur J Med Chem, 2011)
